# Data published in ChEMBL document CHEMBL1145879, “Phosphonooxymethyl prodrugs of the broad spectrum antifungal azole, ravuconazole: synthesis and biological properties” (Bioorg Med Chem Lett, 2003).
# Columns and labels:
# Assay type in all cases: physicochemical
# [1] = Aqueous solubility at pH 6.6
# [2] = Aqueous solubility at pH 7
# [3] = Aqueous solubility was determined; details: buffer
smiles,measurement,setting,value
C[C@@H](c1nc(-c2ccc(C#N)cc2)cs1)[C@](O)(Cn1c[n+](COP(=O)([O-])O)cn1)c1ccc(F)cc1F,solubility,[1],> 0.03 mg/mL
C[C@@H](c1nc(-c2ccc(C#N)cc2)cs1)[C@@](Cn1cncn1)(OCOP(=O)(O)O)c1ccc(F)cc1F [FOSRAVUCONAZOLE],solubility,[2],> 0.03 mg/mL
C[C@@H](c1nc(-c2ccc(C#N)cc2)cs1)[C@](O)(Cn1cncn1)c1ccc(F)cc1F [RAVUCONAZOLE],solubility,[3],0.0006 mg/mL
